Experimental data taken from paper PMC12176259, “Bacterial transcriptional repressor NrdR – a flexible multifactorial nucleotide sensor” (The Febs Journal, 2025).

What was measured:
E. coli NrdR (EcoNrdR) [1] = biological target: T1, E. coli NrdR (EcoNrdR) (Escherichia coli, UniProt P0A8D0); assay: ITC, one set of sites; assay type: binding
T1 construct: full-length wild type, C-terminal His6 tag (pET30a(+)), E. coli BL21(DE3); tag not reported removed; co-purified nucleotides stripped for ITC (apo-NrdR); apo dimer, tetramer with ATP-dATP or ADP-dATP; SeMet version for 9FVR
Description: ITC, one set of sites on E. coli NrdR (EcoNrdR)

E. coli NrdR (EcoNrdR) [2] = biological target: T1, E. coli NrdR (EcoNrdR); assay: X-ray crystal structure, […] Å; assay type: binding; conditions: with dATP and Mg2+; inner site

T1 sequence (P0A8D0 whole entry): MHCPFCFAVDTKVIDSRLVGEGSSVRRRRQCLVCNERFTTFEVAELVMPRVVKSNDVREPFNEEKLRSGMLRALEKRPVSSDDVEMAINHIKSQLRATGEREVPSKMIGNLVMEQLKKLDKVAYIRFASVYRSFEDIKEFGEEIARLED

Row | SMILES | Kd (E. coli NrdR (EcoNrdR) [1]) [nM] | X-ray crystal structure, 2.33 Å (E. coli NrdR (EcoNrdR) [2])
1 | Nc1ncnc2c1ncn2[C@H]1C[C@H](O)[C@@H](COP(=O)(O)OP(=O)(O)OP(=O)(O)O)O1 [dATP] | 610 ± 231 | –
2 | Nc1ncnc2c1ncn2[C@@H]1O[C@H](COP(=O)(O)OP(=O)(O)OP(=O)(O)O)[C@@H](O)[C@H]1O [ATP] | 346 ± 93 | –
3 | Nc1ncnc2c1ncn2[C@@H]1O[C@H](COP(=O)(O)OP(=O)(O)NP(=O)(O)O)[C@@H](O)[C@H]1O [AMPPNP] | – | In complex with dATP and AMPPNP, EcoNrdR is a tetramer
4 | Nc1ncnc2c1ncn2[C@@H]1O[C@H](COP(=O)(O)OP(=O)(O)O)[C@@H](O)[C@H]1O [ADP] | 343 ± 19 | –
